Measurements published in patent publication US8288371B2, “Ortho pyrrolidine, benzyl-substituted heterocycle CCR1 antagonists for autoimmune diseases and inflammation” (Pharmacopeia, LLC, priority 2007, dated 2012).

Molecular target: T1, human CCR1 (Homo sapiens, UniProt P32246)
T1 sequence (P32246 1-355): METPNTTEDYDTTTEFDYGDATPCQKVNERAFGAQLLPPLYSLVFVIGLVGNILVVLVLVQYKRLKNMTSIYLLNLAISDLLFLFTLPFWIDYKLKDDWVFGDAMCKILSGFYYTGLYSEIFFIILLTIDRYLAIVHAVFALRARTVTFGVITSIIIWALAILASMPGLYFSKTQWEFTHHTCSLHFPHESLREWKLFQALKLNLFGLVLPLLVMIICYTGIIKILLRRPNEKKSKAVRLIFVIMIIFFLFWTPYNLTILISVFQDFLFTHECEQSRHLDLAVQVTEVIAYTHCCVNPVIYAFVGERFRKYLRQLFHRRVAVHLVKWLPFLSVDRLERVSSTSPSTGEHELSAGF
Experiment: CCR1 binding protocol (SPA, [125I]-MIP-1α displacement)
Conditions: cell membrane expressing human CCR1, 0.1 nM [125I]-MIP-1α, 4 hours at ambient temperature; read-out: Relative potency (IC50)
Method: The following protocol was used to test compounds for CCR1 binding. A mixture, including scintillation proximity assay (SPA) beads and cell membrane expressing human CCR1, was prepared in assay buffer (130 mM NaCl+5 mM KCl+1 mM MnCl+50 mM Tris HCl at pH 7.4+0.1% bovine serum albumin (BSA)) at the ratio of 50 μg/ml membrane to 10 mg/ml SPA beads. 10 μl of the mixture was transferred to each well of a 384-well assay plate yielding a final concentration for the membrane and SPA beads of 0.5 μg/well and 100 μg/well, respectively
To generate different concentrations of the test compound, compound stocks were prepared using 10 step ½ log dilutions with a high concentration of 10 mM in DMSO and the lowest concentration being DMSO only without compound. An intermediate 40× dilution was then prepared in the assay buffer. The compound was then transferred at 10 μl/well to the assay plate. 0.5 nM [^125 I]-labeled macrophage inflammatory protein-1α (MIP-1α, an endogenous CCR1 ligand) in the assay buffer was transferred to the assay plate at 5 μl/well, for a final ligand concentration of 0.1 nM. The assay plate was then centrifuged at 2500 rpm for 2 minutes and incubated for 4 hours at ambient temperature, at which time the raw data was recorded using microbeta. The IC50 was then calculated using Graphpad Prism.

SMILES	IC50 [nM]
O=C(N[C@H]1CCOc2cc(C(F)(F)F)ccc21)N1CCC[C@@H]1c1ncnn1Cc1ccc(Cl)cc1 [Compound 57]	< 50
Cc1cc(C(F)(F)F)cc(C)c1NC(=O)N1CCC[C@@H]1c1ncnn1Cc1ccc(Cl)cc1 [Compound 58]	< 50
Cc1cc(C(F)(F)F)cc(Br)c1NC(=O)N1CCC[C@@H]1c1ncnn1Cc1ccc(Cl)cc1 [Compound 61]	< 50
Cc1cc(C(F)(F)F)ccc1NC(=O)N1CCC[C@@H]1c1ncnn1Cc1ccc(Cl)cc1 [Compound 63]	< 50
O=C(Nc1ccc(C(F)(F)F)cc1)N1CCC[C@@H]1c1ncnn1Cc1ccc(Cl)cc1 [Compound 64]	< 50
O=C(N[C@H]1CCOc2cc(Cl)ccc21)N1CCC[C@@H]1c1ncnn1Cc1ccc(Cl)cc1 [Compound 65]	50 to 500
CSc1ccc(NC(=O)N2CCC[C@@H]2c2ncnn2Cc2ccc(Cl)cc2)cc1 [Compound 67]	50 to 500
O=C(Nc1ccc(Cl)cc1F)N1CCC[C@@H]1c1ncnn1Cc1ccc(Cl)cc1 [Compound 68]	50 to 500
O=C(Nc1ccc(C(F)(F)F)cc1Cl)N1CCC[C@@H]1c1ncnn1Cc1ccc(Cl)cc1 [Compound 70]	50 to 500
N#Cc1ccc2c(c1)OCCC2NC(=O)N1CCC[C@@H]1c1ncnn1Cc1ccc(Cl)cc1 (stereo partly shown) [Compound 72]	50 to 500
O=C(Nc1ccc(SC(F)(F)F)cc1)N1CCC[C@@H]1c1ncnn1Cc1ccc(Cl)cc1 [Compound 74]	50 to 500
CC(C)Cc1ccc([C@H](C)NC(=O)N2CCC[C@@H]2c2ncnn2Cc2ccc(Cl)cc2)cc1 [Compound 75]	50 to 500
CS(=O)(=O)c1ccc(NC(=O)N2CCC[C@@H]2c2ncnn2Cc2ccc(Cl)cc2)cc1 [Compound 76]	50 to 500
CC1(C)CC[C@@H](NC(=O)N2CCC[C@@H]2c2ncnn2Cc2ccc(Cl)cc2)c2ccccc21 [Compound 77]	50 to 500
O=C(NC1CCS(=O)(=O)c2ccccc21)N1CCC[C@@H]1c1ncnn1Cc1ccc(Cl)cc1 (stereo partly shown) [Compound 78]	500 to 5000
CC1(C)CC[C@H](NC(=O)N2CCC[C@@H]2c2ncnn2Cc2ccc(Cl)cc2)c2ccccc21 [Compound 79]	500 to 5000
O=C(N[C@H]1CCCc2cc(C(F)(F)F)ccc21)N1CCC[C@@H]1c1ncnn1Cc1ccc(Cl)cc1 [Compound 82]	< 50

SMILES	IC50 [nM]
O=C(NC1CCCOc2ccc(Cl)cc21)N1CCC[C@@H]1c1ncnn1Cc1ccc(Cl)cc1 (stereo partly shown) [Compound 84]	50 to 500
O=C(NC1CCc2cc(C(F)(F)F)ccc21)N1CCC[C@@H]1c1ncnn1Cc1ccc(Cl)cc1 (stereo partly shown) [Compound 86]	50 to 500
O=C(NC1CCCOc2cccc(Cl)c21)N1CCC[C@@H]1c1ncnn1Cc1ccc(Cl)cc1 (stereo partly shown) [Compound 87]	50 to 500
O=C(NC1CCCOc2cc(Cl)ccc21)N1CCC[C@@H]1c1ncnn1Cc1ccc(Cl)cc1 (stereo partly shown) [Compound 88]	500 to 5000
O=C(NC1CCCOc2ccccc21)N1CCC[C@@H]1c1ncnn1Cc1ccc(Cl)cc1 (stereo partly shown) [Compound 89]	< 50
CC[C@H](NC(=O)N1CCC[C@@H]1c1ncnn1Cc1ccc(Cl)cc1)c1c(C)cc(C(F)(F)F)cc1C [Compound 90]	50 to 500
O=C(N[C@H]1CCCOc2ccc(Cl)cc21)N1CCC[C@@H]1c1ncnn1Cc1ccc(Cl)cc1 [Compound 93]	50 to 500
Cc1nc([C@H]2CCCN2C(=O)Nc2c(C)cc(C(F)(F)F)cc2C)n(Cc2ccc(Cl)cc2)n1 [Compound 94]	50 to 500
Cc1nc([C@H]2CCCN2C(=O)N[C@H]2CCOc3cc(C(F)(F)F)ccc32)n(Cc2ccc(Cl)cc2)n1 [Compound 96]	500 to 5000
CC[C@H](NC(=O)N1CCC[C@@H]1c1nc(C)nn1Cc1ccc(Cl)cc1)c1c(C)cc(C(F)(F)F)cc1C [Compound 97]	500 to 5000
O=C(NC1(c2ccc(C(F)(F)F)cc2)CC1)N1CCC[C@@H]1c1ncnn1Cc1ccc(Cl)cc1 [Compound 98]	50 to 500
CN1C(=O)COc2ccc(NC(=O)N3CCC[C@@H]3c3ncnn3Cc3ccc(Cl)cc3)cc21 [Compound 99]	50 to 500
Cc1cc(C(F)(F)F)cc(C)c1NC(=O)N1CCC[C@@H]1c1nnc(C)n1Cc1ccc(Cl)cc1 [Compound 102]	< 50
Cc1nnc([C@H]2CCCN2C(=O)N[C@H]2CCOc3cc(C(F)(F)F)ccc32)n1Cc1ccc(Cl)cc1 [Compound 111]	< 50
Cc1nnc([C@H]2CCCN2C(=O)N[C@H]2CCOc3cc(Cl)ccc32)n1Cc1ccc(Cl)cc1 [Compound 113]	< 50
Cc1cc(C(F)(F)F)cc(C)c1NC(=O)N1CCC[C@@H]1c1nnc(C(C)C)n1Cc1ccc(Cl)cc1 [Compound 118]	50 to 500
CC[C@H](NC(=O)N1CCC[C@@H]1c1nnc(C)n1Cc1ccc(Cl)cc1)c1c(C)cc(C(F)(F)F)cc1C [Compound 119]	< 50

The remaining lines, values ahead:

IC50 [nM]	SMILES
< 50	Cc1noc(-c2ccccc2)c1NC(=O)N1CCC[C@@H]1c1ncnn1Cc1ccc(Cl)cc1 [Compound 60]
< 50	Cc1onc(-c2ccccc2)c1NC(=O)N1CCC[C@@H]1c1ncnn1Cc1ccc(Cl)cc1 [Compound 62]
50 to 500	Cc1cc(Cl)cc(C)c1NC(=O)N1CCC[C@@H]1c1ncnn1Cc1ccc(Cl)cc1 [Compound 66]
50 to 500	Cn1ncc(-c2ccccc2)c1NC(=O)N1CCC[C@@H]1c1ncnn1Cc1ccc(Cl)cc1 [Compound 69]
50 to 500	O=C(Nc1ccc2nonc2c1)N1CCC[C@@H]1c1ncnn1Cc1ccc(Cl)cc1 [Compound 71]
< 50	CC[C@H](NC(=O)N1CCC[C@@H]1c1ncnn1Cc1ccc(Cl)cc1)c1cc2ccccc2o1 [Compound 80]
< 50	C[C@H](NC(=O)N1CCC[C@@H]1c1ncnn1Cc1ccc(Cl)cc1)c1cc2ccccc2o1 [Compound 81]
50 to 500	Cc1nc(-c2ccccc2)sc1NC(=O)N1CCC[C@@H]1c1ncnn1Cc1ccc(Cl)cc1 [Compound 83]
50 to 500	CC1(C)CC(NC(=O)N2CCC[C@@H]2c2ncnn2Cc2ccc(Cl)cc2)c2ccccc2O1 (stereo partly shown) [Compound 85]
50 to 500	O=C(Nc1ccc2occc2c1)N1CCC[C@@H]1c1ncnn1Cc1ccc(Cl)cc1 [Compound 91]
500 to 5000	Cc1nc([C@H]2CCCN2C(=O)Nc2ccc(C(F)(F)F)cc2)n(Cc2ccc(Cl)cc2)n1 [Compound 92]
50 to 500	CC[C@H](NC(=O)N1CCC[C@@H]1c1nc(C)nn1Cc1ccc(Cl)cc1)c1cc2ccccc2o1 [Compound 95]
500 to 5000	O=C(NC1(c2ccccc2)CC1)N1CCC[C@@H]1c1ncnn1Cc1ccc(Cl)cc1 [Compound 100]
< 50	Cc1cc(C(F)(F)F)cc(C)c1NC(=O)N1CCC[C@@H]1c1nncn1Cc1ccc(Cl)cc1 [Compound 101]
< 50	O=C(N[C@H]1CCc2ccccc2C1)N1CCC[C@@H]1c1nncn1Cc1ccc(Cl)cc1 [Compound 103]
< 50	Cc1cc(C(F)(F)F)ccc1NC(=O)N1CCC[C@@H]1c1nncn1Cc1ccc(Cl)cc1 [Compound 104]
< 50	Cc1noc(-c2ccccc2)c1NC(=O)N1CCC[C@@H]1c1nncn1Cc1ccc(Cl)cc1 [Compound 105]
< 50	Cc1cc(Cl)cc(C)c1NC(=O)N1CCC[C@@H]1c1nncn1Cc1ccc(Cl)cc1 [Compound 106]
< 50	O=C(N[C@H]1CCOc2cc(C(F)(F)F)ccc21)N1CCC[C@@H]1c1nncn1Cc1ccc(Cl)cc1 [Compound 107]
< 50	O=C(Nc1ccc(C(F)(F)F)cc1)N1CCC[C@@H]1c1nncn1Cc1ccc(Cl)cc1 [Compound 108]
< 50	Cc1onc(-c2ccccc2)c1NC(=O)N1CCC[C@@H]1c1nncn1Cc1ccc(Cl)cc1 [Compound 109]
< 50	O=C(NC1CCS(=O)(=O)c2ccccc21)N1CCC[C@@H]1c1nncn1Cc1ccc(Cl)cc1 (stereo partly shown) [Compound 110]
50 to 500	Cc1nnc([C@H]2CCCN2C(=O)Nc2ccc(C(F)(F)F)cc2)n1Cc1ccc(Cl)cc1 [Compound 112]
< 50	O=C(N[C@H]1CCOc2cc(Cl)ccc21)N1CCC[C@@H]1c1nncn1Cc1ccc(Cl)cc1 [Compound 114]
< 50	Cc1cc(Cl)cc(C)c1NC(=O)N1CCC[C@@H]1c1nnc(C)n1Cc1ccc(Cl)cc1 [Compound 115]
< 50	CC[C@H](NC(=O)N1CCC[C@@H]1c1nncn1Cc1ccc(Cl)cc1)c1cc2ccccc2o1 [Compound 116]
< 50	CC[C@H](NC(=O)N1CCC[C@@H]1c1nnc(C)n1Cc1ccc(Cl)cc1)c1cc2ccccc2o1 [Compound 117]
< 50	CC[C@H](NC(=O)N1CCC[C@@H]1c1nncn1Cc1ccc(Cl)cc1)c1c(C)cc(C(F)(F)F)cc1C [Compound 120]
50 to 500	O=C(Nc1ccc2occc2c1)N1CCC[C@@H]1c1nncn1Cc1ccc(Cl)cc1 [Compound 121]
50 to 500	Cc1nnc([C@H]2CCCN2C(=O)Nc2ccc3occc3c2)n1Cc1ccc(Cl)cc1 [Compound 122]
